These results are taken from US8207217B2 (Apotex Technologies Inc, priority 2007, dated 2012).

For series [1] the following is noted: oral drug in traditional tablet or capsule form; cited from earlier work.
Series [2] is described as follows: Speciation plot / pH of aqueous solution (Hyperquad Simulation & Speciation, experimentally determined pKas). The format is physicochemical. The source says: We have determined that an advantageous salt for use in pharmaceutical preparations is the mono-sodium salt of the D-isoglutamyl-D-tryptophan, which can be formally represented by formula III, which is the predominant pharmaceutical salt at neutral pH. This takes advantage of the fact that the amino acid is a zwitterion. We have determined that the mono-sodium salt as shown in formula III is the most preferred salt in pharmaceutical preparations. The di-sodium salt of formula II is the predominant species at a pH of about 12 or above. A solution of di-sodium salt in water will have a pH of about 12 and therefore it is unsuitable for use in a liquid formulation. Adjustment of a solution of the di-sodium salt back to a pH of about 7 to about 7.4, in fact produces the mono-sodium salt as the predominant species in solution.
FIG. 1 is a speciation plot of the dipeptide H-D-iGlu-D-Trp-OH and its salt calculated with the software Hyperquad Simulation & Speciation using experimentally determined pKas of the acid and amine groups. LH2=H-D-iGlu-D-Trp-OH in diacid form represented by a compound of formula I, LH=mono carboxylic acid salt such as the mono-sodium salt represented by a compound of formula III, L=dicarboxylic acid salt such as the di-sodium salt represented by a compound of formula II, LH3=acid addition salt of H-D-iGlu-D-Trp-OH such as the mono hydrochloride salt of a compound of formula I wherein the NH2 is protonated. The X axis provides the pH of the solution. The Y axis reports the molar fraction of the species present at a particular pH. Note: % formation relative to L is the default terminology of the software. The concentration of 0.5M is used to reflect the equivalency of 1 gm of thymodepressin in 6 ml water during isolation purposes.
Depending on its concentration, the pH of a solution of di-sodium salt is more than about 8.2. A solution containing 100% of the di-sodium salt has pH of greater than about 11.5 as per speciation plot (FIG. 1). The high pH is unsuitable for dosing to human as a solution. pH adjustment from about 7.2 to about 7.4 with mineral acid introduces additional salt, for example, sodium chloride into the formulation.

The nature of series [3]: Solubility in water. The format is physicochemical. The procedure:
A solution of D-isoglutamyl-D-tryptophan and sodium hydroxide in water is prepared by adding solid D-isoglutamyl-D-tryptophan to sodium hydroxide solution. […] Sodium hydroxide is chosen based on the convenience in obtaining sodium hydroxide solution, however other sodium bases such as sodium hydride, sodium carbonate, sodium bicarbonate can be used. These chemicals are obvious chemical equivalents to sodium hydroxide for step (a) of the process. In step (b), the solution is filtered to remove any particulates prior to proceeding to step (c).

Series [4] can be described thus: Hygroscopicity of the solid in air. The series is classed as physicochemical. Here is the method:
A powdery or amorphous form of a compound, intended for pharmaceutical use may give rise to manufacturing problems due to bulk density issues, hygroscopicity and variable water content that cannot be corrected by vacuum drying. D-isoglutamyl-D-tryptophan is a dipeptide and the drying of an amorphous form at elevated temperature, for example, 80-100° C. under vacuum is not recommended. Thus, there are serious difficulties experienced during the purification of the di-sodium salt of D-isoglutamyl-D-tryptophan and obtaining the pure di-sodium salt on a manufacturing scale. Further, as discussed above, there is no published procedure for its preparation.

Turning to `N[C@H](CCC(=O)N[C@H](Cc1c[nH]c2ccccc12)C(=O)O)C(=O)O` [D-isoglutamyl-D-tryptophan], the oral bioavailability entry in series [1] is “not bioavailable”. Further, the “fraction present in the mono-sodium salt form” value in series [2] (in water at a pH of about 7.0 to about 7.4, 0.5M) is “about 100%”. This compound yielded a solubility in water in series [3] of less than 20 mg per ml.

For “di-sodium salt of D-isoglutamyl-D-tryptophan”, in series [2] (as per speciation plot (FIG. 1)), the “pH of a solution containing 100% of the di-sodium salt” value is “greater than 11.5”. Further, in series [2] (depending on its concentration), the “pH of a solution” value is on record as “more than 8.2”. Also, in series [2] (solution of di-sodium salt in water), the “pH of a solution in water” value is listed as “about 12”. The “behaviour of the freeze-dried solid in air” value in series [4] (freeze-dried) is “turning into a gel in a matter of minutes in air”. Moreover, in series [4] (solid form), the hygroscopicity entry is reported as “extremely hygroscopic”.
